The source made the active and inactive calls. No rule for the calls is given here.

The test relates to Saccharomyces cerevisiae lifespan extension, no nicotinamide. The test is described as follows: yeast lifespan extension without nicotinamide, confirmation, yeast lifespan extension project, S. cerevisiae (AID 812).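 Also: growth read as optical density after 42 hours of incubation at 30C.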
For `COc1ccccc1C(=O)Oc1cc(N)n(S(=O)(=O)c2ccc(C)cc2)n1`, the EC50 is > 40 µM (inactive). For `O=C(c1cnn2c(C(F)F)cc(C3CC3)nc12)N1CCCC1`, the EC50 is > 40 µM (inactive).

For `Cc1ccsc1C(=O)Nc1nnc(-c2ccco2)o1`, the EC50 is > 40 µM (inactive).

Consider `CC(=C1C(=O)c2ccccc2C1=O)N1CCN(c2ccccn2)CC1`, for which the EC50 is > 40 µM (inactive). With `Cc1oc2c(c(=O)c1C)C(=O)CC(c1ccccc1)C2` (centres undefined), the EC50 was > 40 µM (inactive).

As for `CC(c1ccco1)N(C(=O)c1ccccc1NS(=O)(=O)c1cc([N+](=O)[O-])ccc1Cl)c1ccccn1` (centres undefined), the EC50 is > 40 µM (inactive). As to `Cc1ccccc1Oc1cc(-n2ncc(Cl)c(Cl)c2=O)ncn1`, the EC50 was > 40 µM (inactive). Then `COc1ccccc1N(CN1CCCC1=O)C(=O)c1c(F)cccc1F`, with > 40 µM (inactive); and `CS(=O)(=O)Oc1ccc(Br)cc1/C=C1/N=C(c2ccco2)OC1=O`, with > 40 µM (inactive). For `CCCCn1c(NS(=O)(=O)c2ccc(C)cc2)c(C(=O)OCC)c2nc3ccccc3nc21`, the EC50 was > 40 µM (inactive). The value for `O=c1cc(O)c2c(=O)n(-c3ccccc3)c3c(c2o1)CCCCCC3` was > 40 µM (inactive). As for `CCOc1ccc(NCc2nc3ccccc3n2CCOc2ccccc2)cc1`, the EC50 was > 40 µM (inactive).

In the case of `N#C/C(=C\c1ccccc1)C(=O)N(c1ccccn1)C1CCCCC1`, the EC50 was > 40 µM (inactive).

For the compound `CCOC(=O)c1ccccc1N1C(=O)CSC1=S`, the EC50 was > 40 µM (inactive). Then `CC(C)OCCCNS(=O)(=O)c1ccc2ccccc2c1`, with > 40 µM (inactive); and `O=C(c1ccccc1)C(CN1CCCC1)c1ccccc1` (centres undefined), with > 40 µM (inactive). On to `COc1cc(/C=C/C(=O)C2C(=O)C=C(C)OC2=O)cc(OC)c1O` (centres undefined), for which the EC50 was > 40 µM (inactive). Turning to `CSC1=NSC2=NC(=O)/C(=C\c3cccs3)C(=N)N12`, the EC50 is > 40 µM (inactive). As to `Cn1c(=O)c2c(nc(Br)n2Cc2ccc3ccccc3c2)n(C)c1=O`, the EC50 was > 40 µM (inactive). For `CC(=O)C(C(C)=O)c1c(Cl)c(O)c(O)c2c(C(=O)c3ccccc3)coc12`, the EC50 was > 40 µM (inactive). The value for `Cc1ccc(OCC(=O)c2c(O)c3ccccc3oc2=O)cc1C` was > 40 µM (inactive).

Consider `COc1ccc(C(CNC(=O)c2cccc(Br)c2)N2CCCC2)cc1` (centres undefined), for which the EC50 is > 40 µM (inactive). With `Cc1ccc(N/C(C(Cl)=C(Cl)Cl)=C(/Cl)[N+](=O)[O-])c(C)c1`, the EC50 was > 40 µM (inactive). Take `COc1ccc(C(=O)On2c(-c3ccc(Br)cc3)nc3ccccc3c2=O)cc1`: the EC50 was > 40 µM (inactive). Turning to `O=C1CC(c2ccccc2)CC(O)=C1C=NCCN1CCN(C(=O)Nc2ccccc2)CC1` (centres undefined), the EC50 was > 40 µM (inactive).

As to `COc1cccc(C2CC3C(=O)C=CC2N3Cc2ccccc2)c1` (centres undefined), the EC50 is > 40 µM (inactive).

Take `COc1ccc(-c2cc(N)n(S(=O)(=O)c3c(F)c(F)c(F)c(F)c3F)n2)cc1OC`: the EC50 is 26.2 µM. On to `O=C1/C(=C/c2cccnc2)CCC/C1=C\c1cccnc1`, for which the EC50 is > 40 µM (inactive). Then `O=C1C(C2=C(O)c3ccccc3C2=O)=Nc2ccccc21`, with > 40 µM (inactive).

Take `COc1ccc(/C=C(\C#N)C(=O)N2CCOCC2)cc1Br`: the EC50 was > 40 µM (inactive). As to `CC1CCCCC1NC(=O)/C(C#N)=C/c1ccccc1F` (centres undefined), the EC50 is > 40 µM (inactive). Then `COC(=O)C1=C(C(=O)OC)C(c2cc(Br)ccc2O)c2sc(=O)[nH]c2S1` (centres undefined), with > 40 µM (inactive); and `O=C(Nc1nc2ccccc2n1CCN1CCOCC1)c1cn(-c2ccccc2)nc1-c1ccccc1`, with > 40 µM (inactive); and `Nc1sc(-c2ccccc2)cc1C(=O)O`, with > 40 µM (inactive).

For the compound `O=C(NC(=S)NNC(=O)c1ccc(Cl)cc1Cl)c1cccnc1`, the EC50 is > 40 µM (inactive).

In the case of `Cc1ccc(C(=O)c2no[n+]([O-])c2C(=O)c2ccc(C)cc2)cc1`, the EC50 was > 40 µM (inactive). As for `O=C1Nc2cc(Cl)c(Cl)cc2N(O)N1c1cc(Cl)cc(Cl)c1`, the EC50 is > 40 µM (inactive). As to `CC(C)(C)C(=O)/C(=C/c1cccc([N+](=O)[O-])c1)n1cncn1`, the EC50 is > 40 µM (inactive). Then `CCCn1c(SCC(=O)c2ccc3c(c2)NC(=O)CO3)nc2ccccc21`, with > 40 µM (inactive); and `CC1(C)Cc2ccccc2-c2nnc(SCC(=O)Nc3ccc4c(c3)OCO4)n21`, with > 40 µM (inactive).

In the case of `CCn1c(/C=N/c2nc3ccccc3n2C)nc2ccccc21`, the EC50 was > 40 µM (inactive). As to `Cc1ccc(NC(=O)Nc2nc(-c3ccc(C)s3)cs2)cc1`, the EC50 was > 40 µM (inactive). As for `Cc1cc(C)c(S(=O)(=O)c2ccccc2)c(OC(=O)c2ccc(Cl)cc2Cl)n1`, the EC50 was > 40 µM (inactive). The value for `CCCCN(CCCC)c1ccc(C(=O)c2ccccc2C(=O)O)c(O)c1` was > 40 µM (inactive); that for `CC(C)C(C(=O)O)N1C(=O)/C(=C/c2cccn2C)SC1=S` (centres undefined) was > 40 µM (inactive). For `O=C(Nc1scc(-c2ccc(F)cc2)c1C(=O)O)c1ccco1`, the EC50 was > 40 µM (inactive). Then `CC(=O)c1c(C)[nH]c(C(=O)OC2CCCCC2=O)c1C` (centres undefined), with > 40 µM (inactive); and `CC1CCCCN1C(=S)Nc1ccc2nc3n(c(=O)c2c1)CCCCC3` (centres undefined), with > 40 µM (inactive). Then `O=C1CC(c2ccccc2)CC(O)=C1C=NCCN1CCOCC1` (centres undefined), with > 40 µM (inactive). Regarding `Nn1c(-c2ccccn2)nnc1-c1ccccn1`, the EC50 was > 40 µM (inactive). `CC(C)=C1C(=O)NN(c2ccc(C)c(Cl)c2)C1=O`: the EC50 was > 40 µM (inactive). Take `CN=C(SCc1cc2c(cc1Cl)OCO2)c1c(O)n(C)c(=O)n(C)c1=O`: the EC50 was > 40 µM (inactive). As for `COc1ccccc1-c1c(C)oc2cc(OC(=O)c3ccco3)ccc2c1=O`, the EC50 was > 40 µM (inactive). For the compound `O=S(=O)(CCSc1ccccn1)c1nc2ccccc2s1`, the EC50 is > 40 µM (inactive). The value for `COc1ccc(CNC(=O)c2c(O)c3cccc4c3n(c2=O)CCC4)cc1` was > 40 µM (inactive); that for `Cc1ccc2[nH]c3c(c2c1)CC/C(=C/c1ccccc1)C3=O` was > 40 µM (inactive). Take `CCOc1ccc(C(=O)C(CN2CCOCC2)c2ccccc2)cc1` (centres undefined): the EC50 was > 40 µM (inactive). As to `COc1ccccc1CN(Cc1nc2ccccc2c(=O)[nH]1)C(=O)Nc1cccc(C)c1`, the EC50 was > 40 µM (inactive). Then `Cc1cccc(OC(=O)n2c(=S)oc3cc(Cl)ccc32)c1`, with > 40 µM (inactive); and `Cc1nc(SC(C)C)[nH]c(=O)c1Cc1ccccc1`, with > 40 µM (inactive). In the case of `Cc1ccc(CNc2nc3ccccc3s2)s1`, the EC50 is > 40 µM (inactive). `O=C1NCC2=C1C(c1ccc(Br)cc1)Nc1ccccc1N2` (centres undefined): the EC50 was > 40 µM (inactive).

Consider `CCOC(=O)CS(=O)(=O)c1nc(-c2ccc(F)cc2)cc(C(F)(F)F)n1`, for which the EC50 is > 40 µM (inactive). `Cc1ccccc1OC(=O)n1c(=S)oc2cc(Cl)ccc21`: the EC50 was > 40 µM (inactive). `CCOc1cc(/C=C\[N+](=O)[O-])ccc1OCC(=O)Nc1ccccc1C`: the EC50 is > 40 µM (inactive). Consider `Cc1ncc(C23CC4CC(CC(C4)C2)C3)[nH]1`, for which the EC50 was > 40 µM (inactive). As for `CNC(=O)/C(C#N)=C/c1c(F)cccc1Cl`, the EC50 is > 40 µM (inactive). For the compound `CCCN1C(=O)/C(=C/c2ccncc2)SC1=S`, the EC50 is > 40 µM (inactive). In the case of `C=CCn1c(C)cc(C(=O)COc2ncnc3sccc23)c1C`, the EC50 was > 40 µM (inactive). The value for `COc1ccc(/C(O)=C/C(=O)C(=O)Nc2c(C)n(C)n(-c3ccccc3)c2=O)cc1` was > 40 µM (inactive); that for `C/C(=N\NC(=O)c1cccnc1)c1c(O)cc(C)oc1=O` was > 40 µM (inactive); that for `Cc1c(NC(=O)C(=O)/C=C(\O)c2ccc(Cl)cc2)c(=O)n(-c2ccccc2)n1C` was > 40 µM (inactive).

In the case of `O=C(/C=C/c1ccccc1)Nc1ncn[nH]1`, the EC50 is > 40 µM (inactive). As to `CCCCC(CC)Cn1c2nc3ccccc3nc2c2c(=N)oc(C)nc21` (centres undefined), the EC50 was > 40 µM (inactive). Then `CCOC(=O)CC1=NN(c2ccccc2)C(=O)/C1=C\c1ccc(OC)cc1OC`, with > 40 µM (inactive); and `O=Cc1ccccc1OS(=O)(=O)c1ccccc1`, with > 40 µM (inactive); and `O=C1CC(c2ccc(F)cc2)CC(O)=C1C=NCCN1CCN(C(=O)Nc2ccccc2)CC1` (centres undefined), with > 40 µM (inactive). The value for `O=C(NC(=S)NNS(=O)(=O)c1ccccc1)c1ccc([N+](=O)[O-])cc1` was > 40 µM (inactive); that for `CC(C)n1c(=O)c2c(O)cc(=O)oc2c2ccccc21` was > 40 µM (inactive); that for `CCOC(=O)c1c(C)oc2c1c(C(c1cccnc1)N1CCOCC1)c(O)c1ccccc12` (centres undefined) was > 40 µM (inactive).

Regarding `Cc1ccc(S(=O)(=O)N[C@@H](Cc2ccccc2)C(=O)CCl)cc1`, the EC50 was > 40 µM (inactive). `Cc1cccc(N2C(=O)C(Oc3ccc(Cl)cc3Cl)C2C=O)c1C` (centres undefined): the EC50 is > 40 µM (inactive). Consider `O=c1c(-c2ccc(Cl)cc2)[n+]([O-])c2ccccc2n1OCc1ccccn1`, for which the EC50 was > 40 µM (inactive).

On to `CC[n+]1c(/C=C2\C=C(C)CC(C)(C)C2)sc2ccccc21`, for which the EC50 is > 40 µM (inactive). The value for `Cc1c(NC(=O)C(=O)/C=C(/O)c2ccccc2)c(=O)n(-c2ccccc2)n1C` was > 40 µM (inactive); that for `CCc1nnc(NC(=O)c2cccc(S(=O)(=O)N(C)c3ccccc3)c2)s1` was > 40 µM (inactive). Consider `O=C(Nc1ccc(S(=O)(=O)N2CCc3ccccc3C2)cc1)c1ccccc1`, for which the EC50 was > 40 µM (inactive). The value for `COc1ccc(C2CC23N=C(c2ccccc2)OC3=O)cc1` (centres undefined) was > 40 µM (inactive); that for `O=C1c2ccccc2-c2onc3c(Oc4ccccc4)cc(O)c1c23` was > 40 µM (inactive).

For the origin of these results see PubChem BioAssay AID812 (SRMLSC, 2007).
